The values below come from patent publication US20230406840A1, “N-(2-(3-CYANO-2-AZABICYCLO[3.1.0]HEXAN-2-YL)-2-OXOETHYL)QUINOLINE-4-CARBOXAMIDES” (AstraZeneca AB, priority 2022, published 2023).

The target of data set [1] is FAP Mouse Plasma (Mus musculus (Mouse), UniProt P97321). Put plainly: FAP plasma inhibition assay, mouse plasma. In kind it is biochemical. To be noted: mouse plasma dilution 1:67, Ala-Pro-AMC 75 μM; n = 1. Here is the method:
This assay was adapted from the method described in Example 53 for detection of FAP target engagement enzyme activity in plasma. Plasma (anticoagulant K2EDTA) was used as the enzyme source: Human plasma (Pooled from AZ Biobank) and Mouse plasma (AZ AST Biobank). 384-Well black fluotrack PS plates (Greiner 781076) were used. 20 μL diluted plasma (Human plasma dilution 1:40, Mouse plasma dilution 1:67) in buffer (PBS, 0.1% BSA) was added to 0.6 μL compounds (in DMSO). Compounds were tested using 10 CR, 3-fold dilution series from 500 nM FAC. Two replicates for each assay point were run on the same plate. A fluorescence blank read was taken before substrate addition. Substrate, Ala-Pro-AMC (ARI-3144) stock solution (20 mM in DMSO) was diluted in buffer (PBS, 0.1% BSA) to 150 μM concentration and 20 μL added giving 75 μM FAC. Plates were incubated for 40 min at rt in the dark. The plates were read on a Beckman Paradigm® reader with excitation 360 nm and emission 465 nm. Data were analyzed in Excel (IDBS XLfit Add-In) using a one site dose response model (4-parameter logistic fit). […] Raw data signals were normalized using 1.5% DMSO in diluted plasma as 0% control and 1.5% DMSO in buffer (no plasma) as 100% inhibitor control.

Data set [2] addresses FAP enzyme activity in mouse plasma (Mus musculus (Mouse), UniProt P97321). The data set is described as follows: FAP target engagement enzyme activity in mouse plasma after oral dosing. The settings on record: male C57Bl/6 mice, single oral dose 3 or 10 mg/kg; estimated from plasma exposure vs FAP activity, Imax fixed to 1; read-out: In vivo Mouse IC50. The protocol:
The effect of test compound on FAP enzyme activity in mouse plasma was evaluated in an enzymatic assay using the Fibroblast Activation Protein alpha (FAP) specific fluorogenic substrate dipeptide-Coumarin, Ala-Pro-AMC, (ARI-3144). In this assay, FAP cleaves Ala-Pro-AMC to release free AMC which is measured as a fluorescent signal that correlates with enzyme activity.
Male C57Bl/6 mice (Charles River, Germany), 8 weeks of age, were single housed in a temperature-controlled room with a 12-hour light/dark cycle (06:00-18:00 light). The mice had ad libitum access to water and rodent chow diet (R70, Lactamin, Kimstad, Sweden), and were acclimated for 5 days upon arrival. After acclimation, all mice received a single oral dose of test compound (3 or 10 mg/kg). Blood samples for whole blood compound exposure measurements were taken at 0.25, 0.5, 1, 2, 4, 8 and 24 h post oral dosing. Samples were collected in EDTA capillary tubes (20 μL, K2E, REF 19.447) and were transferred to a 96-deep well plate (NUNC, Thermo Discher Scientific) and stored at −20° C. until further analyses were performed. […]
Recombinant human FAP (PB-17-1837, construct PL-17-0278, cd33-FAP (27-757)-6His, Mw85926 Da) was used as a standard for this assay. […] The plates were read on a Beckman Paradigm reader with excitation 360 nm and emission 465 nm. Fluorescence measurements were performed with kinetic read every 5 minutes for 60 min at room temperature. Data were analyzed in Excel (IDBS XLfit Add-In) using a Linear Regression (y=k*x+m) model to prepare a human recombinant FAP standard curve.
On the day of the assay, plasma was diluted (1:2) to 20 μL volume in buffer (PBS, 0.1% BSA) and 7.5 μL was transferred to the assay plate (384-well black, fluotrack PS, Greiner 781076). […] The plates were read on a Beckman Paradigm reader with excitation 360 nm and emission 465 nm. Fluorescence measurements were performed with kinetic read every 5 minutes for 60 minutes at room temperature. As noted above, FAP cleaves Ala-Pro-AMC to release free AMC which is measured as a fluorescent signal. […]

Data set [3] in a line: Caco-2 AB intrinsic permeability. In kind it is in vitro ADME. The settings on record: human, A to B, read-out: Caco2 AB Intrinsic Papp. Here is the method: Caco-2 cell permeability was measured as described in Mol/Pharm 2017, 14, 1601.
Data set [4] has as its system Human Hepatocytes (hHep). Put plainly: Metabolic stability in human hepatocytes (hHep). The data set is classed as in vitro ADME. The protocol:
Metabolic stability in human hepatocytes was measured as described in Xenobiotica 2010, 40, 637.

In data set [5] the target is hFAP (M39-A757) (Homo sapiens (Human), UniProt Q12884).
hFAP (M39-A757), sequence (Q12884 39-757): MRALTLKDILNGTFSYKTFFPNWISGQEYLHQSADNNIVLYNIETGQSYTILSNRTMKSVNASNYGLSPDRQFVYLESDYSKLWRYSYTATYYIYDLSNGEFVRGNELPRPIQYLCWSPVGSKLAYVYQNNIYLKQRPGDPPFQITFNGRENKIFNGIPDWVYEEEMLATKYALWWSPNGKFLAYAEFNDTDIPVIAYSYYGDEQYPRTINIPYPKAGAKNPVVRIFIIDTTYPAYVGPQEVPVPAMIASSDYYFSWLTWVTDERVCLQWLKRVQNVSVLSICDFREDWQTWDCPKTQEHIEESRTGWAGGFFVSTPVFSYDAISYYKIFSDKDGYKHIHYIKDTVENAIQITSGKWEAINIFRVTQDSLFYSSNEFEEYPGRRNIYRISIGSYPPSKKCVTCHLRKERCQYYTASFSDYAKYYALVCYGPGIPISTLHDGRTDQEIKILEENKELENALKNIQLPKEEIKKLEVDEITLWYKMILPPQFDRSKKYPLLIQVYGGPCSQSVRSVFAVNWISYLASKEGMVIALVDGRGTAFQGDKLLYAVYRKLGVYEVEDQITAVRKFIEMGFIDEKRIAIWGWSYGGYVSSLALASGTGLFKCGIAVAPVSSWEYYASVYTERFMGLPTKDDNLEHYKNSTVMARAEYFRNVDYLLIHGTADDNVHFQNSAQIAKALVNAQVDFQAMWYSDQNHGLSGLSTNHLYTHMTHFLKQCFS
Description: Compounds were tested in a direct binding assay using 8K surface plasmon resonance biosensor (GE Healthcare) at 20° C. Immobilization of hFAP (M39-A757) on a CMD200M sensor chip (Xantec) was performed using standard amine coupling procedure in immobilization buffer (10 mM HEPES, 150 mM NaCl, 0.05% Tween20, pH 7.4). The surface was washed with 10 mM NaOH, 1M NaCl before being activated with EDC/NHS (GE Healthcare), followed by immobilization of hFAP (in 10 mM Acetate pH 5.0). Finally, the surface was deactivated by ethanolamine. Immobilization levels of hFAP were around 4000-6000 RU. The reference spot was treated as described, omitting the injection of hFAP. Compound concentration series were injected over the immobilized protein in increasing concentrations (2-500 nM) using single cycle kinetics in running buffer (20 mM TRIS, 150 mM NaCl, 0.05% Tween20, 1% DMSO, pH 7.4). Interaction models were fitted globally to the experimental traces, enabling determination of kon, koff and Kd.

In general, IC50 refers to the point on the concentration scale where inhibition reaches its midpoint. In general, Papp refers to the rate of passage across a membrane or cell layer, normalised by area and donor concentration. As usually defined, the Kd is the free concentration of one partner at which half of the binding sites on the other are occupied at equilibrium, for simple one-to-one binding. A low value points to tighter binding.

FAP Mouse Plasma, sequence (P97321 24-761 limits assumed): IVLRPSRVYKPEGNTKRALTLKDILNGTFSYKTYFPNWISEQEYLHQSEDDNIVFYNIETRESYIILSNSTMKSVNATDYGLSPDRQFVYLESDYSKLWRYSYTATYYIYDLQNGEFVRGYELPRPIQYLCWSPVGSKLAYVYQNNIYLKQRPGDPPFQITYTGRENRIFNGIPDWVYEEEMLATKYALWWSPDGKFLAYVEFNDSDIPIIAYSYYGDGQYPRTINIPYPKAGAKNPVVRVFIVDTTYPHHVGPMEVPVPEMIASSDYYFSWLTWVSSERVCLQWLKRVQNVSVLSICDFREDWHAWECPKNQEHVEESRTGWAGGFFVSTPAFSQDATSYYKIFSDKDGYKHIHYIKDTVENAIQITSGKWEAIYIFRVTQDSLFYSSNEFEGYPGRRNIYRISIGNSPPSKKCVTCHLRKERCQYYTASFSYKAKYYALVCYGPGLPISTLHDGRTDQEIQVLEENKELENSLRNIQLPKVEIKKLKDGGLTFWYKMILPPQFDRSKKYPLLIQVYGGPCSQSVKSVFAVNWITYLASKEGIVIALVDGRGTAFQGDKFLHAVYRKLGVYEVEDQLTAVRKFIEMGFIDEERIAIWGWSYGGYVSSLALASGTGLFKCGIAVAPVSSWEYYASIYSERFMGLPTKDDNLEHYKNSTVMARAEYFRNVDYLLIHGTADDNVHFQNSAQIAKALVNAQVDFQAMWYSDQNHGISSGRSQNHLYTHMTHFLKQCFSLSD
FAP enzyme activity in mouse plasma, sequence (P97321 24-761 limits assumed): as above

Turning to `Cc1ccc2c(C(=O)NCC(=O)N3[C@H](C#N)C[C@@H]4C[C@@H]43)ccnc2c1` [Example 20, N-(2-((1S,3S,5S)-3-Cyano-2-azabicyclo[3.1.0]hexan-2-yl)-2-oxoethyl)-7-methylquinoline-4-carboxamide], the IC50 in data set [1] is 0.73 nM; in data set [2], 3 nM. The Papp in data set [3] stood at 60 ×10⁻⁶ cm/s. Further, in data set [4], the “hHep CLint” value is less than 1 μL/min/1E6.

For the compound `N#C[C@@H]1C[C@@H]2C[C@@H]2N1C(=O)CNC(=O)c1ccnc2cc(C3(C#N)CC3)ccc12` [Example 40, N-(2-((1S,3S,5S)-3-Cyano-2-azabicyclo[3.1.0]hexan-2-yl)-2-oxoethyl)-7-(1-cyanocyclopropyl)quinoline-4-carboxamide], the IC50 was 2.8 nM in data set [1] and 36 nM in data set [2]. In addition, in data set [3], the Papp was 9.3 ×10⁻⁶ cm/s. The compound also returned a Kd in data set [5] of 5.5 nM. Further, the “hHep CLint” value in data set [4] is on record as less than 1 μL/min/1E6.
